In brackets after ≈: the same amount, converted by molar mass. Like-named read-outs stand apart in the source and are kept apart here. Square brackets hold non-standard residues; d marks the D form. Peptide text beside a SMILES is read from it. Gly(N(CH2)2(3-indolyl)) = O=C(O)CNCCc1c[nH]c2ccccc12; Nspe = C[C@H](NCC(=O)O)c1ccccc1; Nlys = NCCCCNCC(=O)O
What was measured:
E. faecium KCTC 13225 = type: cell-based
E. coli ML-35 cells = test: ONPG hydrolysis assay (inner membrane); type: cell-based; conditions: 1.5 mM ONPG, 10 mM sodium phosphate pH 7.4, absorbance 405 nm
Method: The permeability of the inner membrane was determined using E. coli ML-35 cells […]
The intact bacterial inner membrane is non-permeable to o-nitrophenyl-β-D-galactopyranoside (OPNG), a chromogenic substrate of the β-galactosidase.
Following damage to the inner membrane, OPNG enters the cells and is metabolized by β-galactosidase creating a chromogenic […]. E. coli cells were washed in 10 mM sodium phosphate (pH 7.4) containing 100 mM NaCl and resuspended in the same buffer at a final concentration of OD600 = 0.5 containing 1.5 mM ONPG. The hydrolysis of ONPG and generation of o-nitrophenol over time were monitored as absorbance change at 405 nm following the addition of peptoids. […]

[1] = Analytical reversed-phase HPLC elution (hydrophobicity); type: physicochemical; conditions: Table 1; analytical RP-HPLC, SunFire C18 […] 250 mm, water/ACN + 0.1% TFA, 5% B 2 min then linear to 100% B over 30 min, 1 mL/min, UV 220 nm; used as measure of hydrophobicity
Summary of the method: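 Retention time (tR) reflects hydrophobicity, with detection at 220 nm. Elution used a 5–100% acetonitrile linear gradient over 30 min after a 2 min hold at 5%, then 5 min at 100%, with both phases containing 0.1% TFA. Column was an analytical C18 (4.6 × 250 mm, 5 μm) run at 1 mL/min.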

S. aureus ATCC 25923 = type: cell-based, Staphylococcus aureus
Summary of the method: (§1)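 In cation-adjusted Mueller Hinton broth 2 supplemented with 0.02% BSA and 0.001% acetic acid, about 2–5 × 10^5 CFU mL^−1 bacteria met peptoid at 25 µM and five lower two-fold dilutions. The MIC is the lowest concentration without turbidity, from triplicate determinations.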

S. typhimurium SL 1344 = type: cell-based
E. coli ATCC 25922 [2] = test: NPN uptake assay (outer membrane); type: cell-based; conditions: E. coli ATCC 25922, 5 mM HEPES pH 7.2, 10 µM NPN, fluorescence
Method: 14. In vitro biological assays […]
The ability of peptoids to increase the permeability of the outer membrane of Gram-negative bacteria was determined by measuring the incorporation of the NPN fluorescent dye into the outer membrane of E. coli ATCC 25922. Bacterial cells were suspended to a final concentration of OD600 = 0.05 in 5 mM HEPES buffer, pH 7.2, containing 5 mM KCN. Then […]
200 μL NPN dye was added to wells of a 96 well plate to produce a final concentration of 10 μM, and the background fluorescence was recorded (λex = 350 nm, λem = 420 nm). Aliquots of peptoids were added to the well, and fluorescence was recorded as a function of time until there was no further increase in fluorescence. Increases of the permeability of the outer membrane after the addition of peptoids was reflected by increased fluorescence values as a result of NPN incorporation into the membrane. […]

E. coli ATCC 25922 [3] = type: cell-based, Escherichia coli
Summary of the method: as §1

P. aeruginosa KCTC 1637 = type: cell-based
E. faecalis KCTC 3511 = type: cell-based
[4] = gram-positive pathogenic strain, mean of triplicates
[5] = Table S2, broth dilution, MHB2, 37 °C 24 h, max 25 µM, mean of triplicate
[6] = Table S3, counter-ion exchange series, mean of triplicate
[7] = Table S3, counter-ion exchange series (TFA, HCl, AcOH salts), mean of triplicate

SMILES | MIC E. faecium KCTC 13225 (E. faecium KCTC 13225; [4]) [µM] | inner membrane disruption (ONPG hydrolysis) (E. coli ML-35 cells) | HPLC elution (%ACN) [1] [%ACN] | MIC S. aureus ATCC25923 (S. aureus ATCC 25923; [5]) [µM] | MIC S. aureus ATCC25923 (S. aureus ATCC 25923; [6]) [µM] | MIC S. typhimurium SL 1344 (S. typhimurium SL 1344; gram-negative pathogenic strain, mean of triplicates) [µM] | outer membrane disruption (NPN uptake) (E. coli ATCC 25922 [2]) | MIC E. coli ATCC25922 (E. coli ATCC 25922 [3]; [5]) [µM] | MIC E. coli ATCC25922 (E. coli ATCC 25922 [3]; [7]) [µM] | MIC P. aeruginosa KCTC 1637 (P. aeruginosa KCTC 1637; gram-negative pathogenic strain, maintained in refined LB media, mean of triplicates) [µM] | MIC E. faecalis KCTC 3511 (E. faecalis KCTC 3511; [4]) [µM] | MIC E. faecium KCTC 13225 (E. faecium KCTC 13225; KCTC 13225) [µM] | MIC S. typhimurium SL 1344 (S. typhimurium SL 1344; SL 1344) [µM] | MIC E. coli ATCC25922 (E. coli ATCC 25922 [3]; ATCC 25922) [µM] | MIC P. aeruginosa KCTC 1637 (P. aeruginosa KCTC 1637; KCTC 1637) [µM] | MIC E. faecalis KCTC 3511 (E. faecalis KCTC 3511; KCTC 3511) [µM] | MIC S. aureus ATCC25923 (S. aureus ATCC 25923; ATCC 25923) [µM] | MIC E. coli ATCC25922 (E. coli ATCC 25922 [3]; broth dilution, MHB2 with 0.001% acetic acid and 0.02% BSA, 2–5 × 10^5 CFU/mL, 37 °C 24 h, max 25 µM, mean of triplicates) [µM]
C[C@@H](c1ccccc1)N(CC(N)=O)C(=O)CN(C(=O)CN(CCCCN)C(=O)CN(C(=O)CN(C(=O)CN(CCCCN)C(=O)CN(C(=O)CN(C(=O)CN(CCCCN)C(=O)CN(C(=O)CN(C(=O)CNCCCCN)[C@@H](C)c1ccccc1)[C@@H](C)c1ccccc1)[C@@H](C)c1ccccc1)[C@@H](C)c1ccccc1)[C@@H](C)c1ccccc1)[C@@H](C)c1ccccc1)[C@@H](C)c1ccccc1 [peptoid 1, reference compound] (H-[Nlys][Nspe][Nspe][Nlys][Nspe][Nspe][Nlys][Nspe][Nspe][Nlys][Nspe][Nspe]-NH2) | <0.8 | strongly disrupted | 54.5 | 1.6 (≈ 2.91 µg/mL) | 1.6 (≈ 2.91 µg/mL) | 25 (≈ 45.5 µg/mL) | strongly disrupted | 6.3 (≈ 11.5 µg/mL) | 6.3 | 6.3 (≈ 11.5 µg/mL) | 0.8 (≈ 1.46 µg/mL) | – | – | – | – | – | – | –
C[C@@H](c1ccccc1)N(CC(=O)N(CCCCN)CC(=O)N(CC(=O)N(CC(=O)N(CCCCN)CC(=O)N(CC(=O)N(CC(=O)N(CCCCN)CC(=O)N(CCc1c[nH]c2ccccc12)CC(=O)N(CCc1c[nH]c2ccccc12)CC(N)=O)[C@@H](C)c1ccccc1)[C@@H](C)c1ccccc1)[C@@H](C)c1ccccc1)[C@@H](C)c1ccccc1)C(=O)CN(C(=O)CNCCCCN)[C@@H](C)c1ccccc1 [peptoid 11] (H-[Nlys][Nspe][Nspe][Nlys][Nspe][Nspe][Nlys][Nspe][Nspe][Nlys][Gly(N(CH2)2(3-indolyl))][Gly(N(CH2)2(3-indolyl))]-NH2) | – | strongly disrupted | 54.0 | 1.6 (≈ 3.04 µg/mL) | 1.6 (≈ 3.04 µg/mL) | – | strongly disrupted | 6.3 (≈ 12 µg/mL) | – | – | – | <0.8 | 25 (≈ 47.4 µg/mL) | 3.1 (≈ 5.88 µg/mL) | 3.1 (≈ 5.88 µg/mL) | <0.8 | – | –
C[C@@H](c1ccccc1)N(CC(=O)N(CCCCN)CC(=O)N(CCc1c[nH]c2ccccc12)CC(=O)N(CCc1c[nH]c2ccccc12)CC(N)=O)C(=O)CN(CCCCN)C(=O)CN(CCCCN)C(=O)CN(C(=O)CN(C(=O)CN(CCCCN)C(=O)CN(C(=O)CN(C(=O)CNCCCCN)[C@@H](C)c1ccccc1)[C@@H](C)c1ccccc1)[C@@H](C)c1ccccc1)[C@@H](C)c1ccccc1 [peptoid 29] (H-[Nlys][Nspe][Nspe][Nlys][Nspe][Nspe][Nlys][Nlys][Nspe][Nlys][Gly(N(CH2)2(3-indolyl))][Gly(N(CH2)2(3-indolyl))]-NH2) | – | lower than that seen with more hydrophobic peptoids | 48.6 | 6.3 (≈ 11.7 µg/mL) | – | – | somewhat lower | 6.3 (≈ 11.7 µg/mL) | 6.3 | – | – | 1.6 (≈ 2.98 µg/mL) | 6.3 (≈ 11.7 µg/mL) | – | 3.1 (≈ 5.78 µg/mL) | 3.1 (≈ 5.78 µg/mL) | 12.5 (≈ 23.3 µg/mL) | 6.3 (≈ 11.7 µg/mL)
